Data from US20100317734A1, “FREE FATTY ACID BLENDS AND USE THEREOF” (priority 2007, published 2010).

System: Staphylococcus aureus
Assay: Contact viability assay, 2 minutes exposure
Format: cell-based
Details: on its own
Experimental: The assay was conducted in glass tubes and all test components were equilibrated at the teat temperature in a water bath before inoculation and during the suspension period (2 minutes). The inoculum is an 18 hour culture of Staphylococcus aureus grown in Brain Heart Infusion Broth. The reduction in CFU's are illustrated in FIG. 4. FIG. 7 illustrates the antimicrobial effect of emulsions of caprylic:oleic, capric:oleic and lauric:oleic with varying concentration in oleic acid. The emulsions were prepared by method 2 in Example 3.

CCCCCCCC/C=C\CCCCCCCC(=O)O [oleic acid]
antimicrobial effect: no significant antimicrobial effect
